Common to all, as to type: cell-based
The target in experiment [1] is T1, Bcl-xL:BIM and Bcl-2:BIM complex (Homo sapiens, UniProt Q07817).
T1 construct: A diffuse large B cell lymphoma line, Toledo, and an acute lymphocytic leukemia line, RS4; endogenous in cells; host or cells: Toledo
In words: Bcl-2:BIM and Bcl-xL:BIM complex analysis by MSD advanced ELISA in Toledo cells. The following applies: Toledo and RS4; 11 cell lines (FIGS. 4A, 4B), 24 hours. As for the experimental part:
(§1) A diffuse large B cell lymphoma line, Toledo, and an acute lymphocytic leukemia line, RS4; 11, were chosen for the study. Cells were treated for 24 hours with Compound B4 or ABT-737 at indicated concentrations (0.025 uM, 0.04 uM and 0.06 uM, respectively) and harvested for complex analysis. Both Bcl-2:BIM and Bcl-xL:BIM complex were analyzed using MSD advanced ELISA methods.
On the technique in general: An ELISA detects its analyte on a solid surface through an enzyme-linked reagent.

Experiment [2] deals with Bcl-xL:BIM and Bcl-2:BIM complex. The description is as above. The conditions noted are these: Toledo cell line, 24 hours, 0.025, 0.04 and 0.06 uM. As for the experimental part:
as §1

The test system is the same in experiment [3]. Briefly: Bcl-2:BIM and Bcl-xL:BIM complex analysis by MSD advanced ELISA in RS4; 11 cells. The following applies: 11 cell line, 24 hours, 0.025, 0.04 and 0.06 uM. How it is done: as §1

The structures appear in SMILES notation.

T1 sequence (Q07817 whole entry, one chain of several): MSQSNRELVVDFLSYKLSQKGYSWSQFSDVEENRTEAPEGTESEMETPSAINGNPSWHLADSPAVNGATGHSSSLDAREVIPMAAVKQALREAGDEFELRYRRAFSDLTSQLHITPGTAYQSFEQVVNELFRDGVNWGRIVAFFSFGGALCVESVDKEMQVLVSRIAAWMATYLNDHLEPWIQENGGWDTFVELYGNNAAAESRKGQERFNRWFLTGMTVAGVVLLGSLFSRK

As to `Cc1c(S(C)(=O)=O)c(-c2cc(F)cc(N3CCN(c4ccc(NS(=O)(=O)c5ccc(N[C@H](CCN6CCC(C(=O)O)CC6)CSc6ccccc6)c(S(=O)(=O)C(F)(F)F)c5)cc4)CC3)c2)c(-c2ccc(Cl)cc2)n1C(C)C` [Compound B4, (R)-1-(3-(4-(N-(4-(4-(3-(2-(4-chlorophenyl)-1-isopropyl-5-methyl-4-(methylsulfonyl)-1H-pyrrol-3-yl)-5-fluorophenyl)piperazin-1-yl)phenyl)sulfamoyl)-2-(trifluoromethylsulfonyl)phenylamino)-4-(phenylthio)butyl)piperidine-4-carboxylic acid], the “disruption of Bcl-xL:BIM complex compared with ABT-737” value in experiment [1] is recorded as “disrupted Bcl-xL:BIM complex more intensely than ABT-737”. Also, the “disruption of Bcl-xL:BIM vs Bcl-2:BIM complex” value in experiment [2] and in experiment [3] was “more potently disrupted Bcl-xL:BIM than Bcl-2:BIM complex” throughout.

These data come from patent publication US12287338B2, “Method and compositions for predicting anti-cancer efficacy of compounds targeting apoptosis pathway” (Ascentage Pharma (Suzhou) Co., Ltd., priority 2020, dated 2025).
